{"source": "patent US10905738B2", "about": "“Synthetic peptides, prodrugs, pharmaceutical compositions and uses” (Biozeus Desenvolvimento De Produtos Biofarmacêuticos, priority 2018, dated 2021)", "key": {"cavernosal strips": {"system": "cavernosal strips", "test": "relaxation induced by electric stimuli in cavernosal strips pre-contracted with phenylephrine ex vivo", "parameters": "species or system rats of Sprague Dawley (SD) lineage", "conditions": "peptides 10^−10 M; 10^−8 M; 10^−6 M; FIG. 3", "method": "The relaxing potential of the peptides of the present invention on the smooth muscles of cavernous strips was evaluated ex vivo using tissue isolated from rats, a model that is largely used to test drug candidates for the treatment of ED (ITALIANO, G., CALABRÒ, A., PAGANO, F. A simplified in vitro preparation of the corpus cavernosum as a tool for investigating erectile pharmacology in the rat. Pharmacological research, 30(4): 325-334. 1994; GEMALMAZ, H., WALDECK, K., CHAPMAN, T. N., TUTTLE, J. B., STEERS, W. D., ANDERSSON, K E. In vivo and in vitro investigation of the effects of sildenafil on rat cavernous smooth muscle. The Journal of Urology, 165(3): 1010-1014.2001).\nMale rats of Sprague Dawley (SD) lineage were sacrificed by guillotine; the penises were removed surgically and placed on a Petri dish containing Krebs—bicarbonate solution (NaCl 118.1 mM; KCl 4.7 mM; KH2PO4 1.0 mM; MgSO4 1.0 mM; NaHCO3 25.0 mM; CaCl2) 2.5 mM and Glucose 11.1 mM). The corpus cavernosum were dissected by removing the glans, urethra, spongeous body and dorsal vein, and then separated by cutting the fibrous septum between them. Cavernosal strips measuring 2×2×7 mm were mounted separately in a bath for isolated organs containing bicarbonate solution-Krebs (pH 7.4) at 37° C., aerated with 95% of O02 and 5% of CO2. The tissue was connected to a tension transducer and the changes in tension were continuously registered. The cavernosal strips were contracted with phenylephrine (10^−5 M) and subsequently relaxed by electrical stimulation at different frequencies (1 to 32 Hz). […] Differences in the percentage of relaxation between treatment and control were evaluated with regard to statistical significance by means of two-way variance analysis (Two-Way ANOVA) followed by Bonferroni post-test. For the comparison between the treatments and control in light of the stimulation in a single frequency, the results were evaluated by one-way analysis variance (One-Way ANOVA) followed by Bonferroni post-test. […]"}, "[1]": {"system": "smooth muscle of tracheal rings", "test": "spasmodic contraction of tracheal rings ex vivo (histamine-induced)", "parameters": "species or system Dunkin-Hartley guinea pigs", "conditions": "mean±SEM", "method": "The magnitude of the relaxing effect of the peptides was evaluated by means of a model of spasmodic contraction of tracheal rings ex vivo, largely employed to test new bronchodilating agents (see CULLUM, V. A., FARMER, J. B., JACK, D., LEVY, G. P. Salbutamol: a new, selective β-adrenoceptive receptor stimulant. British journal of pharmacology, 35(1): 141-151. 1969; KAO, C. H., CHU, Y. H., WANG, H. W. Effects of lidocaine on rat's isolated tracheal smooth muscle. European Archives of Oto-Rhino-Laryngology, 267(5): 817-820. 2010; SORIANO-URSÚA, M. A., VALENCIA-HERNÁNDEZ, I., ARELLANO-MENDOZA, M. G., CORREA-BASURTO, J., TRUJILLO-FERRARA, J. G. Synthesis, pharmacological and in silico evaluation of 1-(4-dihydroxy-3, 5-dioxa-4-borabycyclo [4.4.0] deca-7,9,11-trien-9-yl)-2-(tert-butylamine) ethanol, a compound designed to act as a β2 adrenoceptor agonist. European journal of medicinal chemistry, 44(7): 2840-2846. 2009).\nFor each test, Dunkin-Hartley guinea pigs (400-500 g) were euthanized in a CO2 atmosphere; subsequently, the trachea was exposed, removed and sectioned in segments of 1 to 3 cartilaginous tracheal rings. Each segment was transferred to an individual organ bath system containing Krebs nutritive solution (NaCl 118 mM; KCl […]; CaCl2) 2.5 mM; MgSO4 1.2 mM; KH2PO4 1.2 mM; NaHCO324 mM; glucose 11 mM) at 37° C., under constant aeration with a carbogenic mixture (95% of O2 and 5% of CO2). In each system, a stem fixed to the base of the container and another connected to an isometric transducer (GRASS FT-03) made up the support of the fragments. A data digitizing system connected to the isometric transducer allowed the recording of tension variations produced by the contraction of the tracheal rings (PowerLab™ 16/30, LabChart, version 8.1, AD Instruments, Australia). The basal tension was adjusted to 1 g, and subsequently, the contractility of the fragments was evaluated by a stimulus with carbachol (2.5 μM). After 1 h at rest, the basal tension was recovered and the tissues were subjected to contraction induced by histamine (50 μM) followed by exposure to increasing concentrations of the treatments (0.01 to 10 μM; n=8) or the comparator PnTx(19).\nTable 1 lists the mean±SEM of the potency values, shown as the negative logarithm of the concentration that reduced the voltage to 50% of the maximum Histamine-induced contraction (pEC50), and efficacy (Emax), calculated from at least 8 independent tests using the sigmoid nonlinear regression equation of the software Graph Prism 5.0 (GraphPad Software, La Jolla, Ca, USA)."}}, "data": [{"sequence": "RQYFWIAWYKLANSK [SEQ ID NO: 5, Ac-Arg-Gln-Tyr-Phe-Trp-Ile-Ala-Trp-Tyr-Lys-Leu-Ala-Asn-Ser-Lys-NH2]", "values": [{"measurement": "enhancing effect on relaxation induced by electric stimuli in strips of cavernous body contracted by phenylephrine", "setting": "cavernosal strips", "value": "enhancing effect"}, {"measurement": "Effectiveness (Emax) (%)", "setting": "[1]; relaxation of tracheal rings contracted by histamine (50 μM)", "value": "Inactive"}, {"measurement": "Potency (pEC50) Molar", "setting": "[1]; tracheal rings contracted by histamine (50 μM), peptides 0.01 to 10 μM", "value": "Inactive"}]}]}
